Source: patent US9730909B2, “Methods for targeting cancer stem cells” (BOSTON BIOMEDICAL, INC, priority 2010, dated 2017)
Where “and” joins values, the source holds several entries; their conditions need not be identical. Identical values can stand only once. Entries after “also recorded” stand apart in the source; their conditions may differ.

Tests used:
[1] = Phase I clinical trial: plasma pharmacokinetics; format: in vivo, human
Description: A cycle consists of twice-daily oral administration of the compound for 4 weeks. Cycles were repeated every 4 weeks (28 days) until progression of disease, unacceptable toxicity, or another discontinuation criterion is met. The dose escalation trial was conducted as open label and multicenter trial. A modified Simon accelerated titration scheme was used for dose escalation.
The primary objective of the trial was to determine the safety, tolerability, and recommended phase II dose (RP2D). The secondary objectives of the trial were to determine the pharmacokinetic profile of the compound, pharmacodynamics of the compound, and preliminary antitumor activity of the compound.

[2] = tested on: advanced solid tumors; experiment: Phase I clinical trial: tumor response (RECIST 1.1); format: in vivo, human
Text: Of the 42 patients dosed, 24 were evaluable for tumor response as of Feb. 7, 2011; 16 (16/24 evaluable patients) achieved stable disease (8 to 75+ weeks).

[3] = tested on: FaDu human head and neck cancer; experiment: Subcutaneous FaDu human head and neck cancer xenograft in immunosuppressed mice; format: in vivo
Description: In the studies shown in FIG. 8, immunosuppressed mice with established subcutaneous FaDu human head and neck cancer were given indicated amount of hand grounded Compound 1 with Crystal Form 1, or vehicle control orally (po). Compound 1 was formulated in […]™. All regimens were administered daily (qd). Tumor sizes were evaluated periodically during treatment.
In the study shown in FIG. 9, immunosuppressed mice with established subcutaneous FaDu human head and neck cancer were given 100 mg/kg of micronized Compound 1 produced with the synthetic process described in FIGS. 5A and 5B (first crop), or vehicle control orally (po). Compound 1 was formulated in […]™. All regimens were administered daily (qd). Tumor sizes were evaluated periodically during treatment. Form 2 has been successfully manufactured by a current good manufacturing practice (cGMP) process and received approval from the FDA and Health Canada to be used in clinical trials.
Form 3 can only be generated from Form 1 using a specially designed slurry process described herein. […] In the study shown in FIG. 10, immunosuppressed mice with established subcutaneous FaDu human head and neck cancer were given 200 mg/kg of Compound 1 with hand grounded Crystal Form 1 or Form 3, or vehicle control orally (po). Compound 1 was formulated in gelucire. All regimens were administered daily (qd). Tumor sizes were evaluated periodically during treatment. This polymorph has been successfully manufactured by a cGMP process and received approval from FDA and Health Canada to be used in clinical trials.
The anti-tumor activity of particles of Compound 1 with different particle size ranges is illustrated in FIG. 15, and the pharmacokinetic data for particles of Compound 1 with different particle size ranges is illustrated in FIGS. 16-18. In the study shown in FIG. 15, immunosuppressed mice with established subcutaneous FaDu human head and neck cancer were given indicated amount of Compound 1 with indicated particle size, or vehicle control orally (po). All regimens were administered daily (qd). Tumor size was evaluated periodically.
In an experiment, a formulation of Compound 1 particles sieved to 160 micron was tested in the model of immunosuppressed mice with established subcutaneous xenograft FaDu human head and neck cancer. The pharmaceutical composition was formulated as 80 mg/ml in 9% Gelucire, 20% Vitamin E TPGS (Table 3). […] All regimens were administered daily (qd).
In an experiment, Compound 1 crystals were milled to a median particle size of about 20 micron. […] All regimens were administered daily (qd).
FaDu human head and neck cancer cells were inoculated subcutaneously into female athymic nude mice (6×10^6 cells/mouse) and allowed to form palpable tumors. When the tumors reached approximately 100 mm^3, the animals were treated orally (po) with Compound 1 at 100 mg/kg or vehicle control daily. Compound 1 was formulated at 10 mg/ml in 20% gelucire. Tumors and bodyweights were measured throughout treatment (FIG. 15).
(§1) Daily examinations into the health status of each animal were also conducted. Body weights were checked every three days. Food and water was supplied daily according to the animal husbandry procedures of the facility. Treatment producing >20% lethality and or >20% net body weight loss were considered toxic. Results are expressed as mean tumor volume (mm^3)±SE. P Values <0.05 are considered to be statistically relevant.
Male or female athymic nude mice 4-5 weeks (Charles River Laboratories, Wilmington, Mass.), were acclimated to the animal housing facility for at least 1 week before study initiation. […]

[4] = Pharmacokinetics in mice of 2, 20, 150 micron particle size formulations; format: in vivo; conditions: particle size 125-150 micron vs 2 and 20 micron, 100 mg/kg oral, 20% Gelucire 44/14, 1% Tween 80
Description: In an experiment, micronized Compound 1 prepared in step 6 of Example 2 with a mean particle size of 2 micron, 20 microns, 150 microns were formulated as suspensions in 20% Gelucire 44/14 and 1% Tween 80 and administered orally to mice at 100 mg/kg. Each time point represents the average of 3 mice (FIG. 16).

[5] = Toxicity (body weight, deaths) in xenograft-bearing immunosuppressed mice; format: in vivo; conditions: for mice died during the treatment: about 90% pure
Description: All regimens were administered daily (qd). Body weights were evaluated periodically during treatment. Each point represents the mean±SEM of eight tumors. […] All regimens were administered daily (qd). Body weights were evaluated periodically during treatment. Each point represents the mean±SEM of eight tumors.
as §1

[6] = tested on: cancer cells and normal cells; conditions: literature reports (Hirai 1999; Takano 2009); cited from earlier work
[7] = Phase I clinical trial: safety and tolerability; format: in vivo, human
Text: Grade 3 or greater events include: fatigue and diarrhea.

[8] = Concentration in patient urine; format: in vivo, human; conditions: patient 0001, 20 mg daily administration
[9] = tested on: advanced cancers; experiment: Progression free survival of patients; format: in vivo, human
Text: FIG. 22 is a graph that illustrates the comparison of progression free survival of colorectal cancer patients treated with Compound 1. The progression free survival (PFS) of evaluable patients with colorectal cancer treated with Compound 1 was compared against historical PFS data for best supportive care in patients with colorectal cancer.
FIG. 23 is a graph that illustrates the comparison of progression free survival (PFS) versus pharmacokinetic exposure. The PFS of evaluable patients receiving Compound 1 was compared against Compound 1 exposure above or below 1.6 uM for at least 4 hours.

[10] = tested on: cancer cells and normal cells; experiment: Exposure concentration/time and selective killing of cancer versus normal cells; format: cell-based
Description: The studies described herein discovered counter-intuitively that cancer cells and cancer stem cells requires much shorter exposure than normal cells to be killed by Compound 1. Normal cells can tolerate up to 24 hours of exposure to Compound 1. Furthermore, the studies here discovered that normal cells can recover after a short period of no-drug exposure, while cancer cells cannot recover once they are exposed to a certain concentration of the Compound 1 for at least 2 hours. Based on these studies, a special pharmacokinetic exposure [termed selective pharmacokinetic profile (SPP), or preferred pharmacokinetic profile (PPP), which is used interchangeably in this publication] was designed for Compound 1 using the data shown below in Table 14 for achieving selective antitumor activity in patients (FIG. 24).
The selective activity of Compound 1 in killing cancer cells and sparing normal cells is represented by the data in Table 14 and illustrated in FIG. 24.

[11] = crystal form used in clinical trials
[12] = particle size less than 5 micron

Which “pharmacokinetics in cancer patients” value [1, 11] does the source give for `CC(=O)c1cc2c(o1)C(=O)c1ccccc1C2=O` [Crystal Form 2, 2-acetyl-4H, 9H-naphtho[2,3-b]furan-4,9-dione] here?
Its value is “desirable pharmacokinetics”.

What about the “anti-tumor activity in cancer patients” value [2, 11] of the same compound?
The value was “strong signs of anti-tumor activity”.

What about the anti-tumor activity ([3]; 100 mg/kg micronized (first crop, process of FIGS. 5A-5B) in GELUCIRE, po, qd) of the same compound?
The anti-tumor activity was “potent anti-tumor activity”.

Which anti-tumor activity ([3]; hand grounded Crystal Form 1 in GELUCIRE, po, qd) does the source give for `CC(=O)c1cc2c(o1)C(=O)c1ccccc1C2=O` [Crystal Form 1, 2-acetyl-4H, 9H-naphtho[2,3-b]furan-4,9-dione] here?
The anti-tumor activity was “limited anti-tumor activity; also recorded: low anti-tumor activity”.

With `CC(=O)c1cc2c(o1)C(=O)c1ccccc1C2=O` [Compound 1, 2-acetylnaphtho[2,3-b]furan-4,9-dione] as the compound, how does the plasma exposure [4] read?
The plasma exposure was “lower level of exposure”.

What about the toxicity ([5]; about 90% pure Compound 1, GELUCIRE, po, qd) of the same compound?
Its toxicity is “Significant toxicity”.

And the “mice died during the treatment” value ([5]; mice with FaDu human head and neck cancer (first experiment))?
Its value is 4.

What about the “mice died during the treatment” value ([5]; mice with MDA-231 human breast cancer (second experiment)) of the same compound?
Its value is 3.

What about the tolerability ([5]; higher purity (about 95% or greater), mice with FaDu or MDA-231 xenografts, po, qd) of the same compound?
Its tolerability is “well-tolerated and showed no signs of toxicity”.

What about the “toxicity to cancer cells versus normal cells” value [6] of the same compound?
Its value is “equally toxic to cancer cells and normal cells”.

And the “maximum tolerated dose (MTD)” value ([7]; dose escalated from 20 mg to 2000 mg/day)?
The value was “not reached; also recorded: neither MTD nor RP2D has been reached”.

What about the “Urine Color Change, # of Events” value ([7]; human, in vivo) of the same compound?
Its value is 2.

And the “Urine Color Change, % of Total” value ([7]; human, in vivo)?
The value was 2.5%.

What about the “Urine Color Change, # of Events” value ([7]; human, in vivo, 4 weeks) of the same compound?
The value was 0.

What about the “time plasma concentration was sustained” value ([1]; 320 mg/day dose level, at a concentration of at least 1.5 μM) of the same compound?
Its value is “over 8 hours”.

And the “clearance from the blood” value ([1]; human, in vivo, 20 mg)?
The value was “rapidly cleared from the blood”.

And the AUC0-24 ([1]; human, in vivo, 320 mg)?
The AUC0-24 was 29.79 µM·h.

And the AUC0-24 ([1]; human, in vivo, 800 mg)?
Its AUC0-24 is 26.43 µM·h.

What about the AUC0-24 ([1]; human, in vivo, 1400 mg) of the same compound?
The AUC0-24 was 28.38 µM·h.

And the “antitumor activity in a colon cancer lesion in kidney” value ([2]; 20 mg QD)?
Its value is “signs of potent antitumor activity”.

What about the “evaluable patients showing no metastatic tumors” value ([2]; 24 evaluable patients with advanced refractory cancers) of the same compound?
The value was “over 80%”.

What about the “response of colon cancer metastatic lesion to kidney” value ([2]; patient 0001, 20 mg daily) of the same compound?
Its value is “complete regression”.

What about the “Best Response, remark (CA 125)” value ([2]; patient 0014, total daily dose 400 mg bid, Ovarian cancer) of the same compound?
The value was “CA 125 normalization”.

And the “Best Response, remark (CEA)” value ([2]; patient 0015, total daily dose 400 mg bid, Colon adenocarcinoma)?
The value was “CEA ? >30-50%”.

What about the “evaluable patients showing SD/MR by RECIST 1.1” value ([2]; tumors refractory to chemotherapies) of the same compound?
Its value is 16/24 and 16 out of 24.

And the “concentration of the compound in urine” value [8]?
Its value is “high concentration”.

What about the efficacy ([3]; median particle size about 20 micron, 200 mg/kg oral daily) of the same compound?
The efficacy was “weak or moderate efficacy”.

What about the anti-tumor activity ([3]; nanoparticles, D50 about 100 nanometers) of the same compound?
Its anti-tumor activity is “reduction of anti-tumor activity”.

What about the efficacy ([3]; particle size greater than 20 micron) of the same compound?
The efficacy was “no or weak efficacy”.

And the anti-tumor activity [3, 12]?
The anti-tumor activity was “potent anti-tumor activity”.

And the toxicity [3, 12]?
The toxicity was “no observed toxicity”.

What about the progression free survival ([9]; blood drug concentration above 1 uM, patients with diverse cancers) of the same compound?
Its progression free survival is “increase in progression free survival”.

What about the “progression free survival (PFS)” value ([9]; patients with advanced colorectal cancer refractory to chemotherapy) of the same compound?
The value was “Prolongation of progression free survival”.

And the progression free survival ([9]; patients with exposure above 1.6 uM for at least 4 hours)?
The progression free survival was “improvement in progression free survival”.

What about the “exposure time tolerated by normal cells” value [10] of the same compound?
Its value is “up to 24 hours”.

And the selectivity of killing ([10]; about or above 0.2 and 30 μM for about 4 hours up to about 24 hours)?
The selectivity of killing was “selective killing of cancer cells and sparing of normal cells”.

Which antitumor activity ([3]; 200 mg/kg hand grounded, in gelucire, po, qd) does the source give for `CC(=O)c1cc2c(o1)C(=O)c1ccccc1C2=O` [Crystal Form 3, 2-acetyl-4H, 9H-naphtho[2,3-b]furan-4,9-dione] here?
Its antitumor activity is “potent antitumor activities”.
